The target in the assay is Phosphodiesterase 4 (Homo sapiens, UniProt P27815+Q08499+Q07343+Q08493). In words: Inhibition of partially-purified PDE 4 from human monocytes.

Usually IC50 stands for the concentration needed to halve the response being measured.

On to `COc1ccc([C@H]2CC(=O)N(Cc3ccc(Br)cc3)C2)cc1OC1CCCC1`, for which the IC50 was 740 nM. In other words, the sub-micromolar range.
For `COc1ccc([C@@H]2CC(=O)N(Cc3ccc(Br)cc3)C2)cc1OC1CCCC1` the value was 170 nM.

These data come from ChEMBL document CHEMBL1126870, “The crystal structure, absolute configuration, and phosphodiesterase inhibitory activity of (+)-1-(4-bromobenzyl)-4-(3-(cyclopentyloxy)- 4-methoxyphenyl)-pyrrolidin-2-one” (J Med Chem, 1993).
